Measured values published in US20240065983A1, “COMPOSITION AND METHOD FOR TREATING COVID-19” (University of South Florida, priority 2021, published 2024).

Key:
[1] = tested on: SARS-CoV-2 delta; format: cell-based
[2] = tested on: SARS CoV2 variants (WA, UK B.1.1.7, SA B.1.351); format: cell-based, SARS-CoV-2

## CC(O)c1ccc(CCOc2ccc(CC3SC(=O)NC3=O)cc2)nc1 (stereo not drawn) [LG, leriglitazone]
[1]
  expression of N and inflammatory gene transcripts: decreased expression of N and several inflammatory gene transcripts
[2]
  expression of CoV2-N gene and S genes: significantly inhibited
[2]; LG 20 uM, all CoV2 strains
  expression of inflammatory genes TNFα, IL-6, IL1β: down-regulated at the transcript level
